# Results from article PMC2607543, “Peptides Derived from HIV-1 Integrase that Bind Rev Stimulate Viral Genome Integration” (PLoS ONE, 2009).
# Where no end group is shown, it is not given here.
# How the values were obtained:
# HIV-1 in Sup-T1 cells = experiment: Time-of-addition assay, viral p24 in Sup-T1 cells; format: cell-based; conditions: MOI 2; dextran sulfate 20 µM, AZT 2 µM, LEDGF 402–411 12.5 µM; p24 at 48 h PI; Fig 8C
# Protocol: Figure 8 Virus-cell adsorption and viral reverse-transcriptase activity are not affected by the INr peptides. (A and B) Estimation of viral DNA in virus-infected cells: Sup-T1 cells were incubated with the indicated peptides or with AZT for 2 h and then were infected with HIV. Following another 6 h incubation, the viral Gag (A) or Nef (B) DNA sequences were amplified using specific primers. The reaction was terminated after 30 cycles. Lanes: 1) INr-1 (12.5 µM); 2) INr-2 (12.5 µM); 3) AZT (2 µM); 4) untreated cells; 5) uninfected cells. […] (C) Influence of the time of addition on P24 production: Sup-T1 cells were infected with HIV-1 at a MOI of 2, and the indicated constituents were added at different time points PI (0, 2, 4,…, 24 h). Viral p24 was determined at 48 h PI. No addition (Blue X); no virus (Gray diamond); dextran sulfate 20 µM (Brown asterisk); AZT 2 µM (Red empty circle); INr-1 12.5 µM (Green diamond); INr-2 12.5 µM (Magenta square); LEDGF 402–411 (Black full circle).
# Sup T1 cells were infected with wild-type HIV-1 at a MOI of 2, and the test compounds were added at different time points after infection (0, 2, 4,…, 24 h). Viral p24 production was determined at 48 h PI [59]. Dextran sulfate was tested at 20 µM, AZT at 2 µM, LEDGF 402-411, INr-1 and INr-2 at 12.5 µM.
# [1] = tested on: viral Gag or Nef DNA sequences; format: cell-based, HIV-1; conditions: INr 12.5 µM or AZT 2 µM, 2 h before infection, 6 h after; Gag (A) or Nef (B) PCR; Fig 8A and B
# H9 lymphocytes = experiment: MTT cell toxicity assay, H9; format: cell-based; conditions: up to about 62 µM, Fig 4C
# Protocol: (§1) Figure 4 Cell penetration and toxicity of INr peptides. (A) Fluorescein-labeled INr-1, INr-2, and IN-3 (a known nonpermeable peptide) each at 10 µM, were incubated for 2 h at 37°C with HeLa cells. The cells were then washed three times with PBS and visualized by confocal microscopy. (B) Cell toxicity was determined by MTT assay in HeLa TZM-bl cells. (C) Same as (B) but in H9 lymphocytes. Experimental conditions are described in Materials and Methods.
# (§2) Following incubation of the cells with the indicated peptides, the medium was removed and the cells were further incubated in Earl's solution containing 0.3 mg/ml MTT for 1 h. Subsequently, the solution was removed and the cells were dissolved in 100 µl DMSO for 10 min at room temperature. The DMSO-solubilized cells were transferred to a 96-well ELISA plate and OD values were monitored at a wavelength of 570 nm.
# HeLa TZM-bl cells = experiment: MTT cell toxicity assay, HeLa TZM-bl; format: cell-based; conditions: up to about 62 µM, Fig 4B
# Protocol: as §1, §2
# HIV-1 IN = conditions: ref [36]; cited from earlier work
# Protocol: Dextran sulfate, various peptides and AZT were added at different times to HIV-1 infected Sup-T1 cells and the amount of viral P24 protein—reflecting efficiency of virus infection—was estimated at 48 h PI.
# HIV-1 infected cells = experiment: Cell death and syncytia formation in infected, INr-treated cells; format: cell-based; conditions: combination of the peptide and the virus; not shown
Compound,Time of addition post infection up to which infection is inhibited (HIV-1 in Sup-T1 cells),"Toxic effect, H9 T-cell lymphocytes (H9 lymphocytes)","Toxic effect, HeLa TZM-bl cells (HeLa TZM-bl cells)",also measured
"Cc1cn([C@H]2C[C@H](N=[N+]=[N-])[C@@H](CO)O2)c(=O)[nH]c1=O [AZT, azidothymidine]",≤ 10 h,–,–,Effect on reverse transcription / reverse-transcribed viral DNA [1]: reverse-transcribed viral DNA is absent
CC[C@H](C)[C@H](NC(=O)[C@H](CCCCN)NC(=O)CNC(=O)[C@H](CCC(=O)O)NC(=O)[C@H](CC(C)C)NC(=O)[C@H](Cc1c[nH]cn1)NC(=O)[C@@H](NC(=O)[C@@H](N)Cc1c[nH]c2ccccc12)[C@@H](C)O)C(=O)N[C@H](C(=O)N[C@@H](CC(C)C)C(=O)N[C@H](C(=O)N[C@@H](C)C(=O)N[C@H](C(=O)N[C@@H](Cc1c[nH]cn1)C(=O)N[C@H](C(=O)N[C@@H](C)C(=O)O)C(C)C)C(C)C)C(C)C)[C@@H](C)CC [INr-1],–,No toxic effect,No toxic effect,–
"LEDGF 402–411: LEDGF-derived peptide (aa 402–411) which has been shown to block viral IN enzymatic activity (KIRRFKVSQV; UniProt O75475 402-411, looked up, fragment)",about 18 h,–,–,Inhibition of IN enzymatic activity by LEDGF-derived peptides (HIV-1 IN): block viral IN enzymatic activity in vitro and in vivo
WGSNFTSTTVKA [INr-2],–,No toxic effect,No toxic effect,Cell death and syncytia formation with peptide and virus (HIV-1 infected cells): increase in cell death and syncytia formation
dextran sulfate,≤ 4 h,–,–,–
